The target in experiment [1] is Tyrosine-protein kinase ABL1 (Homo sapiens) (UniProt P00519). Nature of the experiment: Inhibition of ABL (unknown origin) at 30 uM by microfluidic assay relative to control.
Experiment [2] concerns the target Protein kinase C (PKC) (Homo sapiens) (UniProt O94806+P41743+P17252+P05129+Q05655+P05771+Q05513+Q02156+P24723+Q15139+Q04759). In words: Inhibition of PKC (unknown origin) at 30 uM by microfluidic assay relative to control.
Experiment [3] concerns the target Vascular endothelial growth factor receptor 2 (Homo sapiens, UniProt P35968). In words: Inhibition of VEGFR-2 (unknown origin) by microfluidic assay relative to control.
The target in experiment [4] is Ribosomal protein S6 kinase alpha-1 (Homo sapiens) (UniProt Q15418). In words: Inhibition of RSK1 (unknown origin) at 30 uM by microfluidic assay relative to control.
Sequence of Ribosomal protein S6 kinase alpha-1 (Homo sapiens) (Q15418 whole entry): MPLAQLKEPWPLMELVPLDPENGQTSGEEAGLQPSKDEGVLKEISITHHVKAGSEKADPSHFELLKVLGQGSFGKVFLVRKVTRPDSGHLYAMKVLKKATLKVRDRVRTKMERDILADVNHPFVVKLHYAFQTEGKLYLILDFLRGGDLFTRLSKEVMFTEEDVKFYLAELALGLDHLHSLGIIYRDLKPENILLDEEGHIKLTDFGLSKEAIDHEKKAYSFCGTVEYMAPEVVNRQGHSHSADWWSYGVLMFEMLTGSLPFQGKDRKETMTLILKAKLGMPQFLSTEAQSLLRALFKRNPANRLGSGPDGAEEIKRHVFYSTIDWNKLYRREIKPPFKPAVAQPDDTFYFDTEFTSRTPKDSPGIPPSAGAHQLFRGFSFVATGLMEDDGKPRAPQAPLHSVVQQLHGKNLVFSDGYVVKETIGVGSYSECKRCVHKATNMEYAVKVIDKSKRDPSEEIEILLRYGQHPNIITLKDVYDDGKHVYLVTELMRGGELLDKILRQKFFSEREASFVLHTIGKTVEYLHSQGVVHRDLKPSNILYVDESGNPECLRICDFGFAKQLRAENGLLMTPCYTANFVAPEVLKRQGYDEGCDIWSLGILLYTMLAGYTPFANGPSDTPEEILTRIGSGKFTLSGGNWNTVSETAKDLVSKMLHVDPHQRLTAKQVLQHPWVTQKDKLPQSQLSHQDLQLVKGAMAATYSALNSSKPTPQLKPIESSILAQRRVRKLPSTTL
Experiment [5] has as its target T1, Aurora kinase A (Homo sapiens) (UniProt O14965).
T1 sequence (whole entry): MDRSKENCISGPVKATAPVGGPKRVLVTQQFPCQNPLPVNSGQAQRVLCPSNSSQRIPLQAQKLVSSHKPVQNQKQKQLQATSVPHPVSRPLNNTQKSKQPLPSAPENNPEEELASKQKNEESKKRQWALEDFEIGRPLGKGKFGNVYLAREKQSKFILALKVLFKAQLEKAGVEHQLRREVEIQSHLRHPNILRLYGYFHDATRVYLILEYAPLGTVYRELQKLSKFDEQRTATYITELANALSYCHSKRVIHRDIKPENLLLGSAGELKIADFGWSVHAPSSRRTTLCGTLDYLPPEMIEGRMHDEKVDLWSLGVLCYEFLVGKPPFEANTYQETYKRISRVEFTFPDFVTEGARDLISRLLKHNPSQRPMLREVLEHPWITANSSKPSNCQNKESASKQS
In words: Inhibition of AurA (unknown origin) at 30 uM by microfluidic assay relative to control.

For experiment [6], the target named is T2, Serine/threonine-protein kinase Chk1 (Homo sapiens, UniProt O14757).
T2 sequence (O14757 whole entry): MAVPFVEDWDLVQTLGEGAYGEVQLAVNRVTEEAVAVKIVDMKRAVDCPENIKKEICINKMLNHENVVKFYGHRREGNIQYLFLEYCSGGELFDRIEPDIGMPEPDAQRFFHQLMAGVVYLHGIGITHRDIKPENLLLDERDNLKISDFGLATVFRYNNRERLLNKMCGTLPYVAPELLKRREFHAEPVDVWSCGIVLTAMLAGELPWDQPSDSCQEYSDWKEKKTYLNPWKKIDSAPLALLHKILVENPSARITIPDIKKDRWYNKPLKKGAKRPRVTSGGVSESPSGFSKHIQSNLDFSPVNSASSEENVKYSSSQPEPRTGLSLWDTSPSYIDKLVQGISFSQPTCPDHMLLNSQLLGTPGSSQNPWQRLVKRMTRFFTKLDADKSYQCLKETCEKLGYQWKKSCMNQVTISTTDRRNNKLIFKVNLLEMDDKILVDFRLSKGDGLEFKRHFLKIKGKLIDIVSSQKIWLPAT
Nature of the experiment: Inhibition of CHK1 (unknown origin) by microfluidic assay relative to control.

In experiment [7] the target is T3, Serine/threonine-protein kinase D2 (Homo sapiens) (UniProt Q9BZL6).
T3 sequence (whole entry): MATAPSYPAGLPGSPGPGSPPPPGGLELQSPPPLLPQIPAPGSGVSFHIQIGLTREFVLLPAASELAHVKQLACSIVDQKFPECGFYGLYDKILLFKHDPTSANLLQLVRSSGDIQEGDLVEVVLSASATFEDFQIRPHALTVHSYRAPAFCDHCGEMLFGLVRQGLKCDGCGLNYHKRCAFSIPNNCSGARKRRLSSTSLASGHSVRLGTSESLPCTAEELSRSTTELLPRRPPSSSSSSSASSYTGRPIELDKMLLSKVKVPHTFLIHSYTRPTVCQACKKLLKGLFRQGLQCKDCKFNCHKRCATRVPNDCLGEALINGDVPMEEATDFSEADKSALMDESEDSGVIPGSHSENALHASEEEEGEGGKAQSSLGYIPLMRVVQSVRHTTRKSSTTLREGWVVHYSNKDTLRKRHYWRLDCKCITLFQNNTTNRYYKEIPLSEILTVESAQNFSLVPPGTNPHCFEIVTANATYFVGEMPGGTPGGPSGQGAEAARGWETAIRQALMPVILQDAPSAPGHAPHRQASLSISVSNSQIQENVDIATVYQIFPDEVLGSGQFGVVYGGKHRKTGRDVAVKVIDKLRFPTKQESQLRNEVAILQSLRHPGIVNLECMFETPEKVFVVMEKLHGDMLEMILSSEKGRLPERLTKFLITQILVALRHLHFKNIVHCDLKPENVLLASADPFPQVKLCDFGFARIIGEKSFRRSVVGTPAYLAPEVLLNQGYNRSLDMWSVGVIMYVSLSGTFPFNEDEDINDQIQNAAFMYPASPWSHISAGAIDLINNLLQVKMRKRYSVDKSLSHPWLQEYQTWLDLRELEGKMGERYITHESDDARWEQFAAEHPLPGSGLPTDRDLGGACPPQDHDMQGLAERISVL
In words: Inhibition of PKD2 (unknown origin) at 30 uM by microfluidic assay relative to control.

In experiment [8] the target is Tyrosine-protein kinase Lyn (Homo sapiens) (UniProt P07948). In words: Inhibition of LYN (unknown origin) at 30 uM by microfluidic assay relative to control.
Sequence of Tyrosine-protein kinase Lyn (Homo sapiens) (P07948 2-512 limits assumed): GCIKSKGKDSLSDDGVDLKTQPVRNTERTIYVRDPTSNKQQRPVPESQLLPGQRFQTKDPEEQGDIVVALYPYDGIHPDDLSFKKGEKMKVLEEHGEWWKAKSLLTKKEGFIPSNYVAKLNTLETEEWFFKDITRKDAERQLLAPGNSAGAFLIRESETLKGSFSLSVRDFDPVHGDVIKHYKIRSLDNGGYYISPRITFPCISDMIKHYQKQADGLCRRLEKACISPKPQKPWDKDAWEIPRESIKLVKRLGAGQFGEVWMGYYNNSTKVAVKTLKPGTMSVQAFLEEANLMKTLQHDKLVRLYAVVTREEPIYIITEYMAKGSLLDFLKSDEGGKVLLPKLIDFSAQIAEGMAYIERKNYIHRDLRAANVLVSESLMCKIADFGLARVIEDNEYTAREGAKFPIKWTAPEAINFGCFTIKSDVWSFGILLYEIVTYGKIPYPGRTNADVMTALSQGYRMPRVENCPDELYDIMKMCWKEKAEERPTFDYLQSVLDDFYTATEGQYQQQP
For experiment [9], the target named is Mitogen-activated protein kinase 3 (Homo sapiens) (UniProt P27361). Nature of the experiment: Inhibition of Erk1 (unknown origin) at 30 uM by microfluidic assay relative to control.
Sequence of Mitogen-activated protein kinase 3 (Homo sapiens) (P27361 whole entry): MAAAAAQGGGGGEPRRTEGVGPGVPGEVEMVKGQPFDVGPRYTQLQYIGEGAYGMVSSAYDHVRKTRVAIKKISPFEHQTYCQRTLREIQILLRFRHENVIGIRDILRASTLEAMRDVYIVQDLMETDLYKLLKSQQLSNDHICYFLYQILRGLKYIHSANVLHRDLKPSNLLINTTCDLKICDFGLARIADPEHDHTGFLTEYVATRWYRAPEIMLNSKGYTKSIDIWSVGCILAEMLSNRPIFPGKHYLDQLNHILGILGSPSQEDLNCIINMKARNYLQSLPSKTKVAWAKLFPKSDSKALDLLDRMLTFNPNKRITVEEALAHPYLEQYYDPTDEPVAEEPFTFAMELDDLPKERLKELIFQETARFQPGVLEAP
Experiment [10] has as its target T4, MAP kinase-activated protein kinase 5 (Homo sapiens) (UniProt Q8IW41).
T4 sequence (whole entry): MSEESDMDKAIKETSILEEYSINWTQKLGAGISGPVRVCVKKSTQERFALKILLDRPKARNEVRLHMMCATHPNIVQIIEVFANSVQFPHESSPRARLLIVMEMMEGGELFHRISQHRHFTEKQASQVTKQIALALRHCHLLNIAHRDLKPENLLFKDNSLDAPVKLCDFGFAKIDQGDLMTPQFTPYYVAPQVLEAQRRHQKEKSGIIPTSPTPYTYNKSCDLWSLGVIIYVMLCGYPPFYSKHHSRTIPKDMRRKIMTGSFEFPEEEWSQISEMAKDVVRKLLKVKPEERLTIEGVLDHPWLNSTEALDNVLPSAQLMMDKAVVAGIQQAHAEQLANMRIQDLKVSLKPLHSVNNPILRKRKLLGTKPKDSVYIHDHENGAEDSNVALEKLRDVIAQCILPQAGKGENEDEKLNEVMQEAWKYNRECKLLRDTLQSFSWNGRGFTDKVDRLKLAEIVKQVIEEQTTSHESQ
Nature of the experiment: Inhibition of MAPKAPK5 (unknown origin) at 30 uM by microfluidic assay relative to control.

Experiment [11] has as its target Mitogen-activated protein kinase 1 (Homo sapiens) (UniProt P28482). In words: Inhibition of Erk2 (unknown origin) at 30 uM by microfluidic assay relative to control.
For experiment [12], the target named is RAC-alpha serine/threonine-protein kinase (Homo sapiens) (UniProt P31749). In words: Inhibition of AKT1 (unknown origin) at 30 uM by microfluidic assay relative to control.
Sequence of RAC-alpha serine/threonine-protein kinase (Homo sapiens) (P31749 whole entry): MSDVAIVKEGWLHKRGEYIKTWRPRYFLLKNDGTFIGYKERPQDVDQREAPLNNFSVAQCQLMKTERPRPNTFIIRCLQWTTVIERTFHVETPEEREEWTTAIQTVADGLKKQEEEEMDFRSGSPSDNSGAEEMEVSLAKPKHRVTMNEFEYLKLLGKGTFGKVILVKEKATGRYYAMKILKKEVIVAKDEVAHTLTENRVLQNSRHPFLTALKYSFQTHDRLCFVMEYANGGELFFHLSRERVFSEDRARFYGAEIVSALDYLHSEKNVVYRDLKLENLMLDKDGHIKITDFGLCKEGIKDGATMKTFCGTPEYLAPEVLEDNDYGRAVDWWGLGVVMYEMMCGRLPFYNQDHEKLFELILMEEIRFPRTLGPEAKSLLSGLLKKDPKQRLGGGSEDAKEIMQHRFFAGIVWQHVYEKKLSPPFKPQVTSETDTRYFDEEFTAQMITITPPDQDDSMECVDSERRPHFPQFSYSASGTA

The source of these data is ChEMBL document CHEMBL3739348, “Novel pyrrole derivatives as selective CHK1 inhibitors: design, regioselective synthesis and molecular modeling” (Medchemcomm, 2015).

Sequence of Tyrosine-protein kinase ABL1 (Homo sapiens) (P00519 whole entry): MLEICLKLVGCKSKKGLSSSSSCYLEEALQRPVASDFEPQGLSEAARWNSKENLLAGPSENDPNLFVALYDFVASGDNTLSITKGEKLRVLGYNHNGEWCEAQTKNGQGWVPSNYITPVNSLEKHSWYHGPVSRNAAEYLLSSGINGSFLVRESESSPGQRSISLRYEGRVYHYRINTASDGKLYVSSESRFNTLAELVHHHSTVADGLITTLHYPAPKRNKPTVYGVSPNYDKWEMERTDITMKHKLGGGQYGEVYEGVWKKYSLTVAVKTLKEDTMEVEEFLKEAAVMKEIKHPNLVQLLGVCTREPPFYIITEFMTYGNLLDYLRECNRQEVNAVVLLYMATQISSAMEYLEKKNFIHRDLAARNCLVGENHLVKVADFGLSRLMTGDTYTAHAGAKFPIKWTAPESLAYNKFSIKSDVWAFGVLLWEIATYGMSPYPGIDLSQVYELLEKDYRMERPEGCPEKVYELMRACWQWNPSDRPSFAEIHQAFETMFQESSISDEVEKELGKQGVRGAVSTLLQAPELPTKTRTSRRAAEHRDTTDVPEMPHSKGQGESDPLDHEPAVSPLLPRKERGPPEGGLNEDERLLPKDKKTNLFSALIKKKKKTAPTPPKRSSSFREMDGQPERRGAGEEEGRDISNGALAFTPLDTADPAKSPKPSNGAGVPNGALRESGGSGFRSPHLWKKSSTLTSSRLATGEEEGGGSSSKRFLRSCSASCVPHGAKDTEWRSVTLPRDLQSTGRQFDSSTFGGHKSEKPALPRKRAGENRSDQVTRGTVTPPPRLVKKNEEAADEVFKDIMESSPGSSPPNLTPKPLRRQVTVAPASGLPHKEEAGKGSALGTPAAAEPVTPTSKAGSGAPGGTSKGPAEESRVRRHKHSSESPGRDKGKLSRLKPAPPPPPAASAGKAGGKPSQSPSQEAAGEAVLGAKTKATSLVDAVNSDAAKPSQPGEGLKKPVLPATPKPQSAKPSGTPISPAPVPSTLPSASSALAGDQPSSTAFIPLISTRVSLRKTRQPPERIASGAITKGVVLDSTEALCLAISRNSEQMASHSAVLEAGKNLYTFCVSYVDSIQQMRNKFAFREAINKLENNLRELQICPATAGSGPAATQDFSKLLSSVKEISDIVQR
Sequence of Mitogen-activated protein kinase 1 (Homo sapiens) (P28482 whole entry): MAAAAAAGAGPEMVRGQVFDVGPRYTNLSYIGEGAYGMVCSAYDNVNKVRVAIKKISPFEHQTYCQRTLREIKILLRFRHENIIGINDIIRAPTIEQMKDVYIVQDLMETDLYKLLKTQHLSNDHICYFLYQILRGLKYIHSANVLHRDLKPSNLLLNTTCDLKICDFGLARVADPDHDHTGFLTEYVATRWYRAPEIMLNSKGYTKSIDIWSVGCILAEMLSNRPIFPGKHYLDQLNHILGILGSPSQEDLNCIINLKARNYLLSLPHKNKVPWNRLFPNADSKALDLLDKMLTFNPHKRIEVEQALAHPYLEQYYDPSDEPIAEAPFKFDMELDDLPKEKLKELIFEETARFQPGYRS
Sequence of Vascular endothelial growth factor receptor 2 (P35968 whole entry): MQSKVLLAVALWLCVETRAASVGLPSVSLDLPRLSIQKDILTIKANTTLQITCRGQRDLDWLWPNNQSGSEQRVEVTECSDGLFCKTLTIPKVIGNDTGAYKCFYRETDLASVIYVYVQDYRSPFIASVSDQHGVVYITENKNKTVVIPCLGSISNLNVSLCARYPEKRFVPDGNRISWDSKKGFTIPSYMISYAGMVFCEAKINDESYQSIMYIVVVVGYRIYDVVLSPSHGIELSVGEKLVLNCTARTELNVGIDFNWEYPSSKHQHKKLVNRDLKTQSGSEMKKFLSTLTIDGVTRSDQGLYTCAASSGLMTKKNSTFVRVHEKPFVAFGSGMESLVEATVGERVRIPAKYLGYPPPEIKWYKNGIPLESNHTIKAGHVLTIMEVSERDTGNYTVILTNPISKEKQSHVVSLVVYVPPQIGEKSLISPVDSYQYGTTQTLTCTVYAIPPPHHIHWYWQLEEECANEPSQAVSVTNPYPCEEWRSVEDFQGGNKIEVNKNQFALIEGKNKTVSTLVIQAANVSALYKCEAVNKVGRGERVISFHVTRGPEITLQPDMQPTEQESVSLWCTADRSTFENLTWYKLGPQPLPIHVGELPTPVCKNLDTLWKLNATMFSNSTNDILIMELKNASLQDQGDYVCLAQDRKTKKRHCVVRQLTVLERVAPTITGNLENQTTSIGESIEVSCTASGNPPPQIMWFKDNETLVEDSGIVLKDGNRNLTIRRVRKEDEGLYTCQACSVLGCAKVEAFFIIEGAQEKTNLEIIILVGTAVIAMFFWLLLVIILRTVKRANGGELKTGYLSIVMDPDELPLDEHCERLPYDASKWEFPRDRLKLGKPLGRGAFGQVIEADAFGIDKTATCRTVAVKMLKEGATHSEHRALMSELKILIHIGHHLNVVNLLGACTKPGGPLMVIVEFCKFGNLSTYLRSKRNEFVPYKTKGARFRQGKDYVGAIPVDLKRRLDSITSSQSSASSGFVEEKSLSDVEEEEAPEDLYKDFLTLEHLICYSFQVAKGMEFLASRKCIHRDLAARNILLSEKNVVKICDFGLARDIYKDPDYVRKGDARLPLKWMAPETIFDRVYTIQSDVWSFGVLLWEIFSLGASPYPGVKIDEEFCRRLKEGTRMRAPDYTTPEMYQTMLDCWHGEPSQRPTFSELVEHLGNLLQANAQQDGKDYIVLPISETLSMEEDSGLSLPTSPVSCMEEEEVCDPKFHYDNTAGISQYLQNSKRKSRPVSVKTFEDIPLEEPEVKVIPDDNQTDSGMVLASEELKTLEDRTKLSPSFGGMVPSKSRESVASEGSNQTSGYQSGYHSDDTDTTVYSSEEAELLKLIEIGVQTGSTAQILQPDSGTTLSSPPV

As usually defined, the inhibition is the relative decrease from the control value, in per cent. The low end stands for a response near the control, the high end for a response far below the control. What is called IC50 is the concentration that inhibits the measured activity by half. As to `Cc1[nH]c(-c2ccccc2)c(-c2ccccc2)c1C(=O)c1cn(-c2ccccc2)nc1C(=O)Nc1ccccc1`, the inhibition in [1] was found to be 32%; in experiment [2], 44%; in experiment [4] it was 2%; in experiment [5], 2%; in experiment [7], 65%; in experiment [8] it was 24%. The inhibition in experiment [9] is 8%; in [10], 54%; in experiment [11], 24%; in experiment [12], 45%. Also, the IC50 in experiment [3] was 3450 nM; in experiment [6], 800 nM.

With `Cc1[nH]c(-c2ccccc2)c(-c2ccccc2)c1-c1nnc(O)c2nn(-c3ccccc3)cc12`, the inhibition in experiment [1] was found to be 5%; in experiment [2], 63%; in experiment [4], 36%; in experiment [5], 32%; in experiment [7], 32%; in experiment [8], 5%. In addition, the inhibition in experiment [9] worked out at 8%; in experiment [10] it was 32%; in experiment [11] it was 23%; in experiment [12] it was 90%. For the same molecule, the IC50 was found to be 3450 nM in experiment [3] and 690 nM in [6].

Regarding `Cc1[nH]c(-c2ccccc2)c(-c2ccccc2)c1C(=O)c1coc2c1cc(O)c1ccccc12`, the inhibition turned out to be 4% in experiment [1]; 34% in experiment [2]; 4% in [4]; 23% in [5]; 54% in experiment [7]; 34% in experiment [8]. In addition, the inhibition in [9] was determined as 3%; in experiment [10] it was 54%; in experiment [11], 21%; in [12], 13%. Moreover, the results for the IC50 in experiment [3] and in experiment [6] were 4560 nM and 310 nM, respectively.
